Experimental data: patent US5942663A, “Biocidal proteins” (Zeneca Limited, priority 1991, dated 1999)
No end group written: not given here.

Legend:
Nectria haematococca = format: cell-based; settings: N haematococca, 48 hours of incubation
Sarcina lutea = experiment: Antibacterial activity in vitro test; format: cell-based; settings: S lutea, 48 hours
Protocol: (§1) The antibacterial activity of the Mj-AMPs was tested against a range of gram-positive and gram-negative bacteria: Bacillus megaterium, Sarcina lutea, Escherichia coli and Erwinia carotovora. β-purothionin and UDA were also tested for comparison (see Example 7). Tests were performed in soft agarose medium containing 1% tryptone and, with or without 1 mM CaCl2 and 50 mM KCl. Absorbance, 595 nm, of the culture was measured after 48 hours.

Escherichia coli = experiment: Antibacterial activity in vitro test; format: cell-based; settings: E coli, 48 hours
Protocol: as §1

Erwinia carotovora = experiment: Antibacterial activity in vitro test; format: cell-based; settings: E carotovora, 48 hours
Protocol: as §1

Bacillus megaterium = experiment: Antibacterial activity in vitro test; format: cell-based; settings: B megaterium, 48 hours
Protocol: as §1

Fusarium culmorum [1] = experiment: Stability of the antifungal activity of the Mj-AMPs; format: cell-based
Protocol: Antifungal activity was measured by microspectrophotometry as previously described (Broekaert, WF et al; 1990; FEMS Microbiol Lett, 69, 55-60). Routinely, tests were performed with 20 μl of a (filter-sterilized) test solution and 80 μl of a fungal spore suspension (2×10^4 spores/ml) in half strength Potato Dextrose Broth (Difco). Control microcultures contained 20 μl of (sterile) distilled water and 80 μl of the fungal spore suspension. Unless otherwise stated the test organism was Fusarium culmorum and incubation was done at 25° C. for 48 hours. Percent growth inhibition is defined as 100 times the ratio of the corrected absorbance of the control microculture minus the corrected absorbance of the test microculture over the corrected absorbance at 595 nm of the control microculture. The corrected absorbance values equal the absorbance at 595 nm of the culture measured after 48 hours minus the absorbance at 595 nm measured after 30 min. Values of growth inhibition lower than 10% are not indicated on the chromatograms.
Table 1 summarises the results of further testing of the stability of the antifungal activity of the Mj-AMPs. Tests for antifungal activity were performed with 20 μl samples diluted five-fold with growth medium containing Fusarium culmorum spores (2×10^4 spores/ml), according to the assay method given in Example 2. Control samples contained either Mj-AMP1 at 500 μg/ml or Mj-AMP2 at 100 μg/ml in 10 mM sodium phosphate buffer (pH 7). Reduction was done by addition of DTT at 2.5 mM followed by incubation at 37° C. for 2 hours. pH stability was tested in the following buffers: 20 mM glycine-HCl (pH 2 and 3); 20 mM diethanolamine-HCl (pH 10); and 20 mM glycine-NaOH (pH 11). After 1 hour of incubation in the appropriate buffers the samples were dialyzed for 16 hours against 10 mm sodium phosphate buffer (pH 7). For digestions, proteases were added at 100 μg/ml and incubated at 37° C. for 16 hours.

Alternaria brassicola = format: cell-based; settings: A brassicola, 48 hours of incubation
Isoelectric focusing = format: physicochemical; settings: isoelectric focusing on Immobiline Dry Strips
Protocol: PAS staining for glycoproteins was done by the method of Zacharius, RM et al (1969; Anal Biochem, 30, 148-152) using ovalbumin (3.2% carbohydrate) as a positive control sample. The pI values of Mj-AMP1 and Mj-AMP2 were determined by isoelectric focusing and found to be about 10.5 for both proteins. Isoelectric focussing was done on precast Immobiline Dry Strips (Pharmacia) using marker proteins in the pI range from 4.7 to 10.6 (Pharmacia).

Venturia inaequalis = format: cell-based; settings: V inaequalis, 10 days of incubation
[2] = system: Pyrenophora tritici-repentis; format: cell-based; settings: P tritici-repentis, 48 hours of incubation
Saccharomyces cerevisiae = experiment: Inhibitory activity against yeast; format: cell-based; design: key: +++:complete inhibition; +:some inhibition; -:no inhibition
Protocol: The inhibitory activity of Mj-AMPs against yeast, Saccharomyces cerevisiae was tested. The results shown in Table 5 indicate that Mj-AMPs do inhibit the growth of yeast at concentrations of 500 μg/ml or above.

Pyricularia oryzae = format: cell-based
Phoma betae = format: cell-based; settings: P betae, 48 hours of incubation
Fusarium culmorum [3] = format: cell-based; settings: F culmorum, 48 hours of incubation
Botrytis cinerea = format: cell-based; settings: B cinerea, 48 hours of incubation
Verticillium dahliae = format: cell-based; settings: V dahliae, 48 hours of incubation
[4] = MEDIUM +Ca/K (1 mM CaCl2 and 50 mM KCl)

## Mj-AMP1: antimicrobial protein from Mirabilis jalapa seeds, dimer of two 4 kDa subunits, 37 residues, SEQ ID NO:1 (QCIGNGGRCNENVGPPYCCSGFCLRQPGQGYGYCKNR; cysteine pairing not given here; also: homodimer)
Nectria haematococca
  IC50: 15 µg/mL
Sarcina lutea; [4]
  IC50: > 500 µg/mL
Sarcina lutea; MEDIUM -Ca/K
  IC50: 100 µg/mL
Escherichia coli; [4]
  IC50: > 500 µg/mL
Escherichia coli; MEDIUM -Ca/K
  IC50: > 500 µg/mL
Erwinia carotovora; [4]
  IC50: > 500 µg/mL
Erwinia carotovora; MEDIUM -Ca/K
  IC50: > 500 µg/mL
Bacillus megaterium; [4]
  IC50: 20 µg/mL
Bacillus megaterium; MEDIUM -Ca/K
  IC50: 6 µg/mL
Fusarium culmorum [1]; 80° C., 10 min
  Relative antifungal activity (shown as % of control activity): 100 % of control activity
Fusarium culmorum [1]; 90° C., 10 min
  Relative antifungal activity (shown as % of control activity): 100 % of control activity
Fusarium culmorum [1]; 100° C., 10 min
  Relative antifungal activity (shown as % of control activity): 100 % of control activity
Fusarium culmorum [1]; Chymotrypsin digestion, 100 μg/ml, 37° C., 16 hours
  Relative antifungal activity (shown as % of control activity): 12 % of control activity
Fusarium culmorum [1]; Control: Mj-AMP1 500 μg/ml or Mj-AMP2 100 μg/ml in 10 mM sodium phosphate buffer pH 7
  Relative antifungal activity (shown as % of control activity): 100 % of control activity
Fusarium culmorum [1]; Pronase E digestion, 100 μg/ml, 37° C., 16 hours
  Relative antifungal activity (shown as % of control activity): 50 % of control activity
Fusarium culmorum [1]; Proteinase K digestion, 100 μg/ml, 37° C., 16 hours
  Relative antifungal activity (shown as % of control activity): 100 % of control activity
Fusarium culmorum [1]; Reduction: DTT 2.5 mM, 37° C., 2 hours
  Relative antifungal activity (shown as % of control activity): < 6 % of control activity
Fusarium culmorum [1]; Trypsin digestion, 100 μg/ml, 37° C., 16 hours
  Relative antifungal activity (shown as % of control activity): 75 % of control activity
Fusarium culmorum [1]; chymotrypsin
  Sensitivity to protease (in words): sensitive
Fusarium culmorum [1]; pH 2, 60 min
  Relative antifungal activity (shown as % of control activity): 100 % of control activity
Fusarium culmorum [1]; pH 3, 60 min
  Relative antifungal activity (shown as % of control activity): 100 % of control activity
Fusarium culmorum [1]; pH 10, 60 min
  Relative antifungal activity (shown as % of control activity): 100 % of control activity
Fusarium culmorum [1]; pH 11, 60 min
  Relative antifungal activity (shown as % of control activity): 100 % of control activity
Fusarium culmorum [1]; pronase E
  Sensitivity to protease (in words): resisted almost completely
Fusarium culmorum [1]; proteinase K
  Sensitivity to protease (in words): resisted almost completely
Fusarium culmorum [1]; trypsin
  Sensitivity to protease (in words): resisted almost completely
Alternaria brassicola
  IC50: 20 µg/mL
Isoelectric focusing
  pI: about 10.5
Venturia inaequalis
  IC50: 12 µg/mL
[2]
  IC50: 300 µg/mL
Saccharomyces cerevisiae; with Ca/K, 5 μg/ml
  Inhibitory activity against yeast: -
Saccharomyces cerevisiae; with Ca/K, 50 μg/ml
  Inhibitory activity against yeast: -
Saccharomyces cerevisiae; with Ca/K, 500 μg/ml
  Inhibitory activity against yeast: +++
Saccharomyces cerevisiae; without Ca/K, 5 μg/ml
  Inhibitory activity against yeast: +
Saccharomyces cerevisiae; without Ca/K, 50 μg/ml
  Inhibitory activity against yeast: +++
Saccharomyces cerevisiae; without Ca/K, 500 μg/ml
  Inhibitory activity against yeast: +++
Pyricularia oryzae
  IC50: 6 µg/mL
Phoma betae
  IC50: 25 µg/mL
Fusarium culmorum [3]
  IC50: 30 µg/mL
Botrytis cinerea
  IC50: 60 µg/mL
Verticillium dahliae
  IC50: 12 µg/mL
